Source: article PMC7821181, “MS Binding Assays for Glycine Transporter 2 (GlyT2) Employing Org25543 as Reporter Ligand” (Chemmedchem, 2020)

Molecular target: T1, hGlyT2 (Homo sapiens, UniProt Q9Y345)
T1 construct: host or cells: HEK293 cells stably expressing hGlyT2; crude membrane fractions
T1 sequence (Q9Y345 1-797): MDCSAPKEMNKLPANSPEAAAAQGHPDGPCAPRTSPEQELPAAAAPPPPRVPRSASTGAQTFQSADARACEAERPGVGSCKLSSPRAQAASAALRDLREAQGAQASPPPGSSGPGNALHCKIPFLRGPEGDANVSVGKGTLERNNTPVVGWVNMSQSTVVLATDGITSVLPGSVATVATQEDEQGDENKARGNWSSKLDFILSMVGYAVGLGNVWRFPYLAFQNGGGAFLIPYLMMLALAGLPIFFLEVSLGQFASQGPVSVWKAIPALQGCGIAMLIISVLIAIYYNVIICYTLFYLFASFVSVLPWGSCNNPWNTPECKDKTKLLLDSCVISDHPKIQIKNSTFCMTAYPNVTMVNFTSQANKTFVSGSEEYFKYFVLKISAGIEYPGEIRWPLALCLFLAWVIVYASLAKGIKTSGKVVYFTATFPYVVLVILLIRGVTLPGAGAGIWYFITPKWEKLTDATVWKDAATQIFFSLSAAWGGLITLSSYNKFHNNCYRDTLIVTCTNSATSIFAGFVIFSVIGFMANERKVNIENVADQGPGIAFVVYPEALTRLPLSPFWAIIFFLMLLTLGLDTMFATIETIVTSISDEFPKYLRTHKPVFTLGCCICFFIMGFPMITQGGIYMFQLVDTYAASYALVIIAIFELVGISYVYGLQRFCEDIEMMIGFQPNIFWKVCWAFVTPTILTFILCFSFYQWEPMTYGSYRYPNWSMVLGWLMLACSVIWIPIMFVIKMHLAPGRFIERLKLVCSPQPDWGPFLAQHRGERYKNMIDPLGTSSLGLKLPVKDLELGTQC
Test: GlyT2 MS Binding Assays: saturation experiments with Org25543
Details: mean±SEM, n=3
Protocol: For the further characterization of the binding of Org25543 to GlyT2 saturation experiments were performed. To determine total binding of Org25543 GlyT2 membrane fractions were incubated with the reporter ligand in eight different concentrations (0.4–150 nM) and the samples analyzed after the general workup by LC‐ESI‐MS/MS as described above. Nonspecific binding was obtained from experiments that were completely analogous to the former except that protein subjected to a prior heat‐shock was used. Quantification of Org25543 in total binding samples could be realized down to the lowest nominal concentration level (0.4 nM). For nonspecific binding samples the quantification was possible down to 2 nM nominal marker concentration. For nominal marker concentrations lower than 2 nM the concentrations of Org25543 lay below the LLOQ. As it is generally acknowledged that nonspecific binding is related to nominal marker concentration in a linear fashion, ^[46] data points below this concentration were calculated by extrapolation after linear regression analysis of the data points for nonspecific binding at nominal marker concentrations from 2 to 150 nM.
For preparation of GlyT2 membrane preparations HEK293 cells, stably expressing the hGlyT2 with a confluence ≥90 %, were used (kindly provided by AbbVie (Wiesbaden, Germany)). […]

SMILES: COc1cc(C(=O)NCC2(N(C)C)CCCC2)cc(OC)c1OCc1ccccc1 [Org25543, N‐[[1‐(dimethylamino)cyclopentyl]methyl]‐3,5‐dimethoxy‐4‐(phenylmethoxy)benzamide]
- maximum density of binding sites (B max) (HEK293 hGlyT2 membrane preparation): 26.15±1.03 pmol (mg protein)^−1
- Kd (Org25543 0.4–150 nM, read-out: K d (saturation experiments)): 7.45 nM
